Assay type in all cases: functional, cell-based
The nature of experiment [1]: Antiproliferative activity against human WM164 cells after 48 hrs by SRB assay. Conditions: WM164, 48 h. (In general: In SRB staining, fixed cells bind dye roughly in proportion to their protein.)
Experiment [2] in a line: Antiproliferative activity against human paclitaxel-resistant PC3-TxR cells after 96 hrs by SRB assay.
Another experiment relates to PC-3. In words: Antiproliferative activity against human PC3 cells after 96 hrs by SRB assay. Conditions: PC-3, 96 h.
A further experiment concerns LNCaP. In words: Antiproliferative activity against human LNCAP cells after 96 hrs by SRB assay.
A further experiment has as its system A-375. The experiment in a line: Antiproliferative activity against human A375 cells after 48 hrs by SRB assay. The following applies: A-375, 48 h.

Turning to `COc1cc2c(c(OC)c1OC)-c1ccc(OC)c(=O)cc1[C@@H](NC(C)=O)CC2` [COLCHICINE], the 50% inhibitory concentration (IC50) in experiment [1] was 30 nM; in experiment [2] it was 20 nM.
As for `CN(C)c1ccc2c(c1)OC(N)=C(C#N)C2c1ccc(F)c2ccccc12` (configuration not stated), the half-maximal inhibitory concentration (IC50) in the experiment on PC-3 was 640 nM; in experiment [1] it was 470 nM; in experiment [2], 290 nM; in the experiment with LNCaP, 410 nM; in the experiment on A-375, 280 nM.

The term IC50 denotes the concentration at which inhibition is half-maximal. A lower IC50 goes with greater potency.

The values are drawn from ChEMBL document CHEMBL2040728, “New substituted 4H-chromenes as anticancer agents” (Bioorg Med Chem Lett, 2012).
